Measurements reported in the NIST ThermoML archive (doi:10.1016/j.jct.2017.07.016).

Assay: xn = mol fraction of the nth substance listed
Settings: 96.7 kPa, Liquid; for viscosity: Capillary tube (Ostwald / Ubbelohde) method; for mass density: Vibrating tube method

CCCCCCn1cc[n+](C)c1.[Cl-] [1-hexyl-3-methylimidazolium chloride] + CN(C)C=O
Settings | mass density [kg/m3] | viscosity [mPa·s]
303.15 K, x1 = 0.134 | 974.15 | 2.479
303.15 K, x1 = 0.265 | 995.06 | 8.757
303.15 K, x1 = 0.352 | 1004.26 | 20.21
303.15 K, x1 = 0.457 | 1013.06 | 47.11
303.15 K, x1 = 0.591 | 1021.21 | 158.5
303.15 K, x1 = 0.764 | 1029.04 | 666.71
303.15 K, x1 = 0.871 | 1032.74 | 2341.7
303.15 K, x1 = 1 | 1036.07 | 5718.5
308.15 K, x1 = 0.134 | 970.01 | 2.265
308.15 K, x1 = 0.265 | 991.32 | 7.582
308.15 K, x1 = 0.352 | 1000.71 | 16.69
308.15 K, x1 = 0.457 | 1009.56 | 38
308.15 K, x1 = 0.591 | 1018.02 | 120.91
308.15 K, x1 = 0.764 | 1026.03 | 466.32
308.15 K, x1 = 0.871 | 1029.81 | 1478.3
308.15 K, x1 = 1 | 1033.22 | 3430.8
313.15 K, x1 = 0.134 | 965.87 | 2.075
313.15 K, x1 = 0.265 | 987.59 | 6.651
313.15 K, x1 = 0.352 | 997.11 | 14.24
313.15 K, x1 = 0.457 | 1006.09 | 30.89
313.15 K, x1 = 0.591 | 1014.86 | 92.58
313.15 K, x1 = 0.764 | 1023.06 | 333.82
313.15 K, x1 = 0.871 | 1026.9 | 1002.9
313.15 K, x1 = 1 | 1030.38 | 2146.1
318.15 K, x1 = 0.134 | 961.73 | 1.962
318.15 K, x1 = 0.265 | 983.87 | 5.854
318.15 K, x1 = 0.352 | 993.45 | 12.13
318.15 K, x1 = 0.457 | 1002.63 | 25.38
318.15 K, x1 = 0.591 | 1011.71 | 72.08
318.15 K, x1 = 0.764 | 1020.1 | 241.58
318.15 K, x1 = 0.871 | 1023.98 | 685.17
318.15 K, x1 = 1 | 1027.56 | 1390.4
323.15 K, x1 = 0.134 | 957.59 | 1.797
323.15 K, x1 = 0.265 | 980.14 | 5.212
323.15 K, x1 = 0.352 | 989.87 | 10.45
323.15 K, x1 = 0.457 | 999.19 | 21.15
323.15 K, x1 = 0.591 | 1008.57 | 57.17
323.15 K, x1 = 0.764 | 1017.14 | 178.79
323.15 K, x1 = 0.871 | 1021.09 | 479.12
323.15 K, x1 = 1 | 1024.75 | 928.1
328.15 K, x1 = 0.134 | 953.45 | 1.656
328.15 K, x1 = 0.265 | 976.43 | 4.647
328.15 K, x1 = 0.352 | 986.25 | 9.067
328.15 K, x1 = 0.457 | 995.78 | 17.82
328.15 K, x1 = 0.591 | 1005.44 | 45.82
328.15 K, x1 = 0.764 | 1014.17 | 135.89
328.15 K, x1 = 0.871 | 1018.25 | 344.77
328.15 K, x1 = 1 | 1021.92 | 638.79
333.15 K, x1 = 0.134 | 949.31 | 1.544
333.15 K, x1 = 0.265 | 972.72 | 4.175
333.15 K, x1 = 0.352 | 982.75 | 7.933
333.15 K, x1 = 0.457 | 992.43 | 15.17
333.15 K, x1 = 0.591 | 1002.31 | 37.41
333.15 K, x1 = 0.764 | 1011.21 | 104.75
333.15 K, x1 = 0.871 | 1015.42 | 253.05
333.15 K, x1 = 1 | 1019.13 | 453.59
338.15 K, x1 = 0.134 | 945.16 | 1.426
338.15 K, x1 = 0.265 | 969.01 | 3.776
338.15 K, x1 = 0.352 | 979.34 | 7.016
338.15 K, x1 = 0.457 | 989.15 | 13.04
338.15 K, x1 = 0.591 | 999.19 | 30.94
338.15 K, x1 = 0.764 | 1008.27 | 82.3
338.15 K, x1 = 0.871 | 1012.58 | 190.24
338.15 K, x1 = 1 | 1016.38 | 327.52
343.15 K, x1 = 0.134 | 941 | 1.328
343.15 K, x1 = 0.265 | 965.31 | 3.431
343.15 K, x1 = 0.352 | 975.92 | 6.246
343.15 K, x1 = 0.457 | 985.94 | 11.3
343.15 K, x1 = 0.591 | 996.09 | 25.86
343.15 K, x1 = 0.764 | 1005.34 | 65.58
343.15 K, x1 = 0.871 | 1009.75 | 143.98
343.15 K, x1 = 1 | 1013.65 | 243.04
348.15 K, x1 = 0.134 | 936.86 | 1.244
348.15 K, x1 = 0.265 | 961.62 | 3.135
348.15 K, x1 = 0.352 | 972.5 | 5.564
348.15 K, x1 = 0.457 | 982.8 | 9.895
348.15 K, x1 = 0.591 | 992.99 | 21.85
348.15 K, x1 = 0.764 | 1002.41 | 52.81
348.15 K, x1 = 0.871 | 1006.93 | 112.06
348.15 K, x1 = 1 | 1010.91 | 183.45
353.15 K, x1 = 0.134 | 932.7 | 1.171
353.15 K, x1 = 0.265 | 957.92 | 2.875
353.15 K, x1 = 0.352 | 969.09 | 5.007
353.15 K, x1 = 0.457 | 979.67 | 8.708
353.15 K, x1 = 0.591 | 989.9 | 18.59
353.15 K, x1 = 0.764 | 999.51 | 43.42
353.15 K, x1 = 0.871 | 1004.11 | 88.51
353.15 K, x1 = 1 | 1008.18 | 140.06
